Reference: US20020085997A1, “TUMOUR VACCINE AND PROCESS FOR THE PREPARATION THEREOF” (priority 1995, published 2002)

Columns and labels:
M-3 cells = experiment: Comparative FACS analysis of M-3 cells treated with FITC-labelled foreign peptide by various methods; type: cell-based, murine
M-3 melanoma metastases = experiment: Curing of DBA/2 mice having M-3 melanoma metastases with vaccine of foreign peptide-charged melanoma cells (therapeutic mouse model); type: in vivo
CT-26 cells = experiment: Protection of Balb/c mice by pre-immunisation with vaccine of foreign peptide-charged CT-26 colon carcinoma cells (prophylactic mouse model); type: in vivo; conditions: for animals protected: vaccinated twice s.c. 10^5 cells/mouse
[1] = system: highly tumorigenic variant of the M-3 cells; type: in vivo, mice; conditions: cells charged with peptide by means of TfpL/DNA complexes

## LFEAIEGFI [Leu Phe Glu Ala Ile Glu Gly Phe Ile, viral peptide derived from the influenza virus haemagglutinin, H2-K^d-ligand, used as foreign peptide to charge tumour cells]
M-3 cells; adjuvant mixing: 100 μg FITC-labelled peptide, 30 minutes ambient temperature, 10^6 M-3 cells
  peptide binding to cells after washing step: at most negligible
M-3 cells; pulsing, cytocentrifuged M-3 cells
  detection of cell-bound FITC peptide by fluorescent microscopy: practically undetectable
M-3 cells; pulsing: incubation with 450 μg FITC peptide, 3 hours 37° C., M-3 cells
  shift in fluorescence: one power of ten
M-3 cells; transloading: 160 μg FITC-labelled peptide with TfpL/pL/DNA complex, 3 hours 37° C., M-3 cells
  shift in fluorescence compared with untreated cells or cells treated with polylysine alone: ~2 powers of ten
M-3 melanoma metastases; 160 μg peptide charged onto M-3 cells by TfpL/DNA complexes, 5 day metastasis, 10^5 irradiated cells/animal s.c. twice
  animals cured: 7 out of 8
M-3 melanoma metastases; adjuvant mixing of the peptide with the irradiated vaccines
  degree of systemic immune response of the tumour vaccine: inefficient
M-3 melanoma metastases; complexes containing 0.5 μg of peptide, five-day metastasis
  animals cured: 2 out of 8
M-3 melanoma metastases; complexes containing 5 μg of peptide, five-day metastasis
  mice cured: 4 out of 8
M-3 melanoma metastases; complexes containing 50 μg of peptide, five-day metastasis
  mice cured: 6 out of 8
M-3 melanoma metastases; mice with metastases vaccinated with xenopeptised irradiated M-3 cells (TfpL and empty vector)
  mice able to eliminate the metastases: 87.5%
M-3 melanoma metastases; peptide administered to the cells by polylysine/transferrin, compared with incubation with peptide for 24 hours (pulsing)
  degree of systemic immune response of the tumour vaccine: significantly more marked
M-3 melanoma metastases; vaccine of cells treated with 4 mg peptide by incubation (pulsing, 3 hours 37° C.)
  animals cured: 1 out of 8
M-3 melanoma metastases; vaccine with 400 μg peptide applied by incubation (pulsing, 3 hours 37° C.)
  animals remained free from tumours: 3 out of the 8
CT-26 cells; irradiated CT-26 vaccine alienised with peptide complexed with TfpL or pL
  vaccinated mice able to eliminate a tumour challenge: 75%
CT-26 cells
  animals protected: 6 out of 8

## FFIGALEEI [Phe Phe Ile Gly Ala Leu Glu Glu Ile, synthetic peptide not hitherto found in nature, designed as ligand for MHC-I molecule of type H2-Kd]
CT-26 cells; murine colon carcinoma CT-26, Balb/c
  suitability of the peptide for producing an anti-tumour immunity: confirmed
CT-26 cells
  animals protected: 4 out of 8

## LPEAIEGFG [Leu Pro Glu Ala Ile Glu Gly Phe Gly, control peptide, anchor amino acids at positions 2 and 9 replaced by proline and glycine, reference compound]
[1]
  animals developed tumours: 7 out of 8
